In patent publication US9617244B2, “Antibacterial quinoline derivatives” (JANSSEN PHARMACEUTICA NV, priority 2012, dated 2017):
Values after ≈ are worked out from the molar mass of the structure shown.

Tests used:
[1] = tested on: Staphylococcus aureus (ATCC29213); experiment: In-vitro anti-bacterial activity, microtitre plate assay, IC90 determination (non-mycobacterial strains); assay type: cell-based; conditions: 90% inhibitory concentration for bacterial growth, resazurin fluorescence; for IC90 STA B29213: 24 hours; for IC90: Staphylococcus aureus, ATCC29213, 24 h, read-out: IC90 STA B29213
Procedure: D.2. In-Vitro Method for Testing Compounds for Anti-Bacterial Activity Against Various Non-Mycobacterial Strains
Preparation of Bacterial Suspensions for Susceptibility Testing:
The bacteria used in this study were grown overnight in flasks containing 100 ml Mueller-Hinton Broth (Becton Dickinson—cat. no. 275730) in sterile de-ionized water, with shaking, at 37° C. Stocks (0.5 ml/tube) were stored at −70° C. until use. Bacteria titrations were performed in microtiter plates to detect the TCID50, in which TCID50 represents the dilution that gives rise to bacterial growth in 50% of inoculated cultures. In general, an inoculum level of approximately 100 TCID50 was used for susceptibility testing.
Anti Bacterial Susceptibility Testing: IC90 Determination
Flat-bottom, sterile 96-well plastic microtiter plates were filled with 180 μl of sterile deionized water, supplemented with 0.25% BSA. Subsequently, stock solutions (7.8× final test concentration) of compounds were added in 45 μl volumes in column 2 Serial five-fold dilutions (45 μl in 180 μl) were made directly in the microtiter plates from column 2 to reach column 11. Untreated control samples with (column 1) and without (column 12) inoculum were included in each microtiter plate. Depending on the bacteria type, approximately 10 to 60 CFU per well of bacteria inoculum (100 TCID50), in a volume of 100 μl in 2.8× Mueller-Hinton broth medium, was added to the rows A to H, except column 12. The same volume of broth medium without inoculum was added to column 12 in row A to H. The cultures were incubated at 37° C. for 24 hours under a normal atmosphere (incubator with open air valve and continuous ventilation). At the end of incubation, one day after inoculation, the bacterial growth was quantitated fluorometrically. Therefore resazurin (0.6 mg/ml) was added in a volume of 20 μl to all wells 3 hours after inoculation, and the plates were re-incubated overnight. A change in colour from blue to pink indicated the growth of bacteria. The fluorescence was read in a computer-controlled fluorometer (Cytofluor Biosearch) at an excitation wavelength of 530 nm and an emission wavelength of 590 nm. The % growth inhibition achieved by the compounds was calculated according to standard methods. The IC90 (expressed in μg/ml) was defined as the 90% inhibitory concentration for bacterial growth.

[2] = tested on: Mycobacterium smegmatis (ATCC607); experiment: In-vitro anti-bacterial activity against strain M. Smegmatis ATCC607; assay type: cell-based; conditions: 90% inhibitory concentration for bacterial growth, Alamar Blue fluorescence; for IC90: Mycolicibacterium smegmatis, ATCC607, 48 h, read-out: IC90 MSM 607; for IC90 MSM 607: 48 hours
Procedure: D.1. In-Vitro Method for Testing Compounds for Anti-Bacterial Activity Against Strain M. Smegmatis ATCC607
Flat-bottom, sterile 96-well plastic microtiter plates were filled with 180 μl of sterile deionized water, supplemented with 0.25% BSA. Subsequently, stock solutions (7.8× final test concentration) of compounds were added in 45 μl volumes to a series of duplicate wells in column 2 so as to allow evaluation of their effects on bacterial growth. Serial five-fold dilutions (45 μl in 180 μl) were made directly in the microtiter plates from column 2 to 11 using a customised robot system (Zymark Corp., Hopkinton, Mass.). Pipette tips were changed after every 3 dilutions to minimize pipetting errors with high hydrophobic compounds. Untreated control samples with (column 1) and without (column 12) inoculum were included in each microtiter plate. Approximately 250 CFU per well of bacteria inoculum, in a volume of 100 μl in 2.8× Mueller-Hinton broth medium, was added to the rows A to H, except column 12. The same volume of broth medium without inoculum was added to column 12 in row A to H. The cultures were incubated at 37° C. for 48 hours in a humidified 5% CO2 atmosphere (incubator with open air valve and continuous ventilation). At the end of incubation, two days after inoculation, the bacterial growth was quantitated fluorometrically. Therefore Alamar Blue (10×) was added to all wells in a volume of 20 μl and plates were incubated for another 2 hours at […]
The fluorescence was read in a computer-controlled fluorometer (Cytofluor, Biosearch) at an excitation wavelength of 530 nm and an emission wavelength of 590 nm (gain 30). The percentage growth inhibition achieved by the compounds was calculated according to standard methods and expressed as IC90 (μg/ml) which defines the 90% inhibitory concentration for bacterial growth.

Row | SMILES | IC90 STA B29213 [1] [µg/mL] | IC90 [2] [µg/mL] | IC90 [1] [µg/mL] | IC90 MSM 607 [2] [µg/mL]
1 | O=c1[nH]c2ccc(Br)cc2cc1C(c1cccc(Cl)c1)C1(O)CCNC(Cc2ccccc2)C1 (stereo not drawn) [Compound 85] | 7.23 (≈ 13.4 µM) | 3.62 (≈ 6.73 µM) |  | 
2 | CSc1nc2ccc(Br)cc2cc1C(c1ccc(Cl)cc1)C1(O)CCNC(Cc2ccccc2)C1 (stereo not drawn) [Compound 89] |  | 1.8 (≈ 3.17 µM) | 3.58 (≈ 6.3 µM) | 
3 | COc1nc2ccc(Cl)cc2cc1C(c1ccc(Cl)cc1)C1(O)CCNC(Cc2ccccc2)C1 (stereo not drawn) [Compound 95] | 2.02 (≈ 3.98 µM) |  |  | 1.43 (≈ 2.82 µM)
4 | Cc1cc(F)ccc1C1CC(O)(C(c2ccc(Cl)cc2)c2cc3cc(Br)ccc3[nH]c2=O)CCN1 (stereo not drawn) [Compound 106] | 1.87 (≈ 3.36 µM) |  |  | <0.93
5 | Cc1cc(F)ccc1C1CC(O)(C(c2ccc(Cl)cc2)c2cc3cc(Br)ccc3[nH]c2=O)CCN1 (stereo not drawn) [Compound 107] |  |  | 1.87 (≈ 3.36 µM) | 2.65 (≈ 4.77 µM)
6 | Cc1cc(F)ccc1C1CC(O)(C(c2ccc(Cl)cc2)c2cc3cc(Br)ccc3[nH]c2=O)CCN1 (stereo not drawn) [Compound 110] | 1.87 (≈ 3.36 µM) |  |  | 1.87 (≈ 3.36 µM)
7 | COc1nc2ccc(C(=O)O)cc2cc1C(c1ccc(Cl)cc1)C1(O)CCNC(Cc2ccccc2)C1 (stereo not drawn) [Compound 118] |  | > 20.6 | > 20.6 | 
8 | CS(=O)(=O)c1ccc2[nH]c(=O)c(C(c3ccc(Cl)cc3)C3(O)CCNC(Cc4ccccc4)C3)cc2c1 (stereo not drawn) [Compound 119] | >16.90 |  |  | >16.90
9 | CS(=O)(=O)c1ccc2[nH]c(=O)c(C(c3ccc(Cl)cc3)C3(O)CCNC(Cc4ccccc4)C3)cc2c1 (stereo not drawn) [Compound 120] | 6.76 (≈ 12.6 µM) |  |  | 5.37 (≈ 10 µM)
10 | COc1nc2ccc(Br)cc2cc1C(c1ccc(Cl)cc1)C1(O)CCNC(C)C1 (stereo not drawn) [Compound 125] | 3.00 (≈ 6.3 µM) |  |  | 3.00 (≈ 6.3 µM)
11 | O=c1[nH]c2ccc(Br)cc2cc1C(c1ccc(Cl)cc1)C1(O)CCNC(Cc2ccc(F)c(F)c2)C1 (stereo not drawn) [Compound 126] | 3.85 (≈ 6.71 µM) |  |  | 3.06 (≈ 5.33 µM)
12 | O=c1[nH]c2ccc(Br)cc2cc1C(c1ccc(Cl)cc1)C1(O)CCNC(Cc2ccc(F)c(F)c2)C1 (stereo not drawn) [Compound 127] | 1.93 (≈ 3.36 µM) |  |  | 3.06 (≈ 5.33 µM)
13 | O=c1[nH]c2ccc(Br)cc2cc1C(c1ccc(Cl)cc1)C1(O)CCNC(Cc2ccccc2)C1 (stereo not drawn) [Compound 128] | 4.56 (≈ 8.48 µM) | 3.62 (≈ 6.73 µM) |  | 
14 | CC1CC(O)(C(c2ccc(Cl)cc2)c2cc3cc(Br)ccc3[nH]c2=O)CCN1 (stereo not drawn) [Compound 129] |  | 7.9 (≈ 17.1 µM) | 12.5 (≈ 27.1 µM) | 
15 | CC1CC(O)(C(c2ccc(Cl)cc2)c2cc3cc(Br)ccc3[nH]c2=O)CCN1 (stereo not drawn) [Compound 130] | 11.60 (≈ 25.1 µM) |  |  | 5.81 (≈ 12.6 µM)
16 | CC1CC(O)(C(c2ccc(Cl)cc2)c2cc3cc(Br)ccc3[nH]c2=O)CCN1 (stereo not drawn) [Compound 131] | >6.27 |  |  | 4.98 (≈ 10.8 µM)
17 | O=c1[nH]c2ccc(Br)cc2cc1C(c1ccc(Cl)cc1)C1(O)CCNC(Cc2ccc(F)c(F)c2)C1 (stereo not drawn) [Compound 133] | 3.85 (≈ 6.71 µM) |  |  | 3.06 (≈ 5.33 µM)
18 | O=c1[nH]c2ccc(Br)cc2cc1C(c1ccc(Cl)cc1)C1(O)CCNC(Cc2ccc(F)c(F)c2)C1 (stereo not drawn) [Compound 134] | 3.07 (≈ 5.35 µM) |  |  | 3.86 (≈ 6.73 µM)
19 | Cc1cc(F)ccc1C1CC(O)(C(c2cccc(Cl)c2)c2cc3cc(Br)ccc3[nH]c2=O)CCN1 (stereo not drawn) [Compound 135] | 1.84 (≈ 3.31 µM) |  |  | 1.84 (≈ 3.31 µM)
20 | Cc1cc(F)ccc1C1CC(O)(C(c2cccc(Cl)c2)c2cc3cc(Br)ccc3[nH]c2=O)CCN1 (stereo not drawn) [Compound 136] | 2.08 (≈ 3.74 µM) |  |  | 1.47 (≈ 2.64 µM)

Row | SMILES | IC90 STA B29213 [1] [µg/mL] | IC90 [2] [µg/mL] | IC90 [1] [µg/mL] | IC90 MSM 607 [2] [µg/mL]
21 | Cc1cc(F)ccc1C1CC(O)(C(c2cccc(Cl)c2)c2cc3cc(Br)ccc3[nH]c2=O)CCN1 (stereo not drawn) [Compound 137] | 3.69 (≈ 6.64 µM) |  |  | 1.65 (≈ 2.97 µM)
22 | Cc1cc(F)ccc1C1CC(O)(C(c2cccc(Cl)c2)c2cc3cc(Br)ccc3[nH]c2=O)CCN1 (stereo not drawn) [Compound 138] | 2.35 (≈ 4.23 µM) |  |  | 1.18 (≈ 2.12 µM)
23 | COc1nc2ccccc2cc1C(c1ccc(Cl)cc1)C1(O)CCNC(Cc2ccc(F)c(F)c2)C1 (stereo not drawn) [Compound 139] |  |  | 2 (≈ 3.93 µM) | 1.78 (≈ 3.5 µM)
24 | COc1nc2ccccc2cc1C(c1ccc(Cl)cc1)C1(O)CCNC(Cc2ccc(F)c(F)c2)C1 (stereo not drawn) [Compound 140] | 2.55 (≈ 5.01 µM) |  |  | 0.72 (≈ 1.41 µM)
25 | COc1nc2ccc(SC)cc2cc1C(c1ccccc1)C1(O)CCNC(Cc2ccccc2)C1 (stereo not drawn) [Compound 141] | 7.77 (≈ 16 µM) |  |  | 4.37 (≈ 9.02 µM)
26 | Cc1cc(F)ccc1C1CC(O)(C(c2cccc(Cl)c2)c2cc3cc(Br)ccc3[nH]c2=O)CCN1 (stereo not drawn) [Compound 143] | 1.82 (≈ 3.27 µM) |  |  | 2.04 (≈ 3.67 µM)
27 | Cc1cc(F)ccc1C1CC(O)(C(c2cccc(Cl)c2)c2cc3cc(Br)ccc3[nH]c2=O)CCN1 (stereo not drawn) [Compound 144] | 3.63 (≈ 6.53 µM) |  |  | 3.24 (≈ 5.83 µM)
28 | Cc1cc(F)ccc1C1CC(O)(C(c2cccc(Cl)c2)c2cc3cc(Br)ccc3[nH]c2=O)CCN1 (stereo not drawn) [Compound 145] | 2.92 (≈ 5.25 µM) |  |  | 2.32 (≈ 4.17 µM)
29 | Cc1cc(F)ccc1C1CC(O)(C(c2cccc(Cl)c2)c2cc3cc(Br)ccc3[nH]c2=O)CCN1 (stereo not drawn) [Compound 146] | 2.35 (≈ 4.23 µM) |  |  | 1.87 (≈ 3.36 µM)
30 | COc1nc2ccc(SC)cc2cc1C(c1cccc(Cl)c1)C1(O)CCNC(c2ccc(F)cc2C)C1 (stereo not drawn) [Compound 147] | 3.39 (≈ 6.31 µM) |  |  | 1.51 (≈ 2.81 µM)
31 | COc1nc2ccc(SC)cc2cc1C(c1cccc(Cl)c1)C1(O)CCNC(c2ccc(F)cc2C)C1 (stereo not drawn) [Compound 148] | 3.39 (≈ 6.31 µM) |  |  | 1.70 (≈ 3.17 µM)
32 | COc1nc2ccc(Br)cc2cc1C(c1cccc(Cl)c1)C1(O)CCNC(c2ccc(F)cc2C)C1 (stereo not drawn) [Compound 149] | 5.63 (≈ 9.88 µM) |  |  | 2.52 (≈ 4.42 µM)
33 | COc1nc2ccc(Br)cc2cc1C(c1cccc(Cl)c1)C1(O)CCNC(c2ccc(F)cc2C)C1 (stereo not drawn) [Compound 150] | 2.63 (≈ 4.61 µM) |  |  | 1.66 (≈ 2.91 µM)
34 | COc1nc2ccc(Br)cc2cc1C(c1cccc(Cl)c1)C1(O)CCNC(c2ccc(F)cc2C)C1 (stereo not drawn) [Compound 151] | 5.26 (≈ 9.23 µM) |  |  | 2.35 (≈ 4.12 µM)
35 | COc1nc2ccc(Br)cc2cc1C(c1cccc(Cl)c1)C1(O)CCNC(c2ccc(F)cc2C)C1 (stereo not drawn) [Compound 152] | 2.78 (≈ 4.88 µM) |  |  | 1.76 (≈ 3.09 µM)
36 | Cc1cc(F)ccc1C1CC(O)(C(c2cccc(Cl)c2)c2cc3cc(S(C)(=O)=O)ccc3[nH]c2=O)CCN1 (stereo not drawn) [Compound 159] | >14.69 |  |  | >14.69
37 | CSc1ccc2[nH]c(=O)c(C(c3cccc(Cl)c3)C3(O)CCNC(c4ccc(F)cc4C)C3)cc2c1 (stereo not drawn) [Compound 160] | 3.51 (≈ 6.71 µM) |  |  | 2.48 (≈ 4.74 µM)
38 | CSc1ccc2[nH]c(=O)c(C(c3cccc(Cl)c3)C3(O)CCNC(c4ccc(F)cc4C)C3)cc2c1 (stereo not drawn) [Compound 161] | 6.90 (≈ 13.2 µM) |  |  | 6.90 (≈ 13.2 µM)
39 | CSc1ccc2[nH]c(=O)c(C(c3cccc(Cl)c3)C3(O)CCNC(c4ccc(F)cc4C)C3)cc2c1 (stereo not drawn) [Compound 162] | 3.52 (≈ 6.73 µM) |  |  | 2.49 (≈ 4.76 µM)
